Where two headings read alike, the source gives them in different places.
What was measured:
Assay type in all cases: cell-based
[1] = test system: A431 (human epidermoid carcinoma); assay: Cytotoxicity, MTT assay; settings: for viability at 50 µM / IC50: Homo sapiens; for viability at 50 µM: A-431, 50 µM, compared to the control, read-out: Cell viability; for viability at 50 µM / Cell viability / Cytotoxic effect (in words): 24 h; for IC50: A-431, 24 h, tested range 3.125 to 50 µM; for Cytotoxic effect (in words): 3.125 to 50 µM
Procedure: (§1) For the cytotoxicity screening of the N-acyl-hydrazone derivatives, three cell lines were employed: HT-29 (human colorectal adenocarcinoma), A431 (human epidermoid carcinoma), and VERO (non-tumoral African green monkey kidney epithelial cells). All cell lines were obtained from the American Type Culture Collection (ATCC, Manassas, VA, USA), and maintained in appropriate culture media as follows: HT-29 and A431 cells were cultured in Dulbecco’s Modified Eagle Medium (DMEM), while VERO cells were cultured in Minimum Essential Medium (MEM). Both culture media were supplemented with 10% fetal bovine serum (FBS) and 1% penicillin-streptomycin mix, to formulate the complete culture medium. All cell lines were incubated at 37 °C in a humidified atmosphere containing 5% CO2. […] For the cytotoxicity screening, cells were seeded into sterile 96-well plates at an initial density of 1 × 10^4 cells/well and allowed to adhere for 24 h. Subsequently, cells were treated with increasing concentrations (3.125 to 50 µM) of compounds 1a–1f and 2 for 24 h. In parallel, 5-fluorouracil (5-FU, Sigma Aldrich, St. Louis, MO, USA) was included as a reference drug and tested over the same concentration range under identical experimental conditions. […] For the experimental control, culture medium was refreshed at the time of treatment application. […] Louis, MO, USA). Briefly, the culture media were discarded from each well and replaced with a fresh solution of MTT (1 mg/mL). Plates were incubated for 4 h at 37 °C, and the resulting formazan crystals were solubilized with isopropanol. The absorbance was measured at 550 nm using the FlexStation III multimodal reader (Molecular Devices, San Jose, CA, USA). All experiments were performed in triplicate and repeated in three independent assays. Cell viability was calculated as a percentage relative to the untreated control using the formula Cell Viability (%) = (Abs treated/Abs control) × 100. Data were processed using GraphPad Prism 6.0 and presented as mean ± standard deviation (SD). Statistical analysis was performed using one-way analysis of variance (ANOVA) followed by Dunnett’s post hoc test for comparison with the untreated control group.

[2] = test system: HT-29 (human colorectal adenocarcinoma); assay: Cytotoxicity, MTT assay; settings: 24 h; for Cell viability: at corresponding concentrations (comparison with 5-FU), concentration not named; for IC50: tested range 3.125 to 50 µM; for Reduction of cell viability: at 50 µM and 25 µM, compared to the control; for Cytotoxic effect (in words): 3.125 to 50 µM
Procedure: as §1

[3] = test system: E. coli ATCC 25922; assay: Microbial adhesion, crystal violet (MICMA); settings: DMSO control 5
Procedure: (§2) For the evaluation of antimicrobial activity, the following reference strains were used: S. aureus ATCC 25923, E. faecalis ATCC 29212, E. coli ATCC 25922, P. aeruginosa ATCC 27853 and C. albicans ATCC 10231.
(§3) Following quantitative analysis of antimicrobial activity, microbial adhesion was evaluated after methanol fixation and violet crystal staining (0.1%). The absorbance of the adhered biomass colored with violet crystal and resuspended in 33% acetic acid was measured at 490 nm.

[4] = test system: C. albicans ATCC 10231; assay: Microbial adhesion, crystal violet (MICMA); settings: DMSO control 1.25
Procedure: as §2, §3

[5] = test system: E. faecalis ATCC 29212; assay: Microbial adhesion, crystal violet (MICMA); settings: DMSO control 2.5
Procedure: as §2, §3

[6] = test system: S. aureus ATCC 25923; assay: Microbial adhesion, crystal violet (MICMA); settings: DMSO control 5
Procedure: as §2, §3

[7] = test system: P. aeruginosa ATCC 27853; assay: Microbial adhesion, crystal violet (MICMA); settings: DMSO control 1.25
Procedure: as §2, §3

[8] = test system: E. coli ATCC 25922; assay: Qualitative antimicrobial activity, adapted Kirby-Bauer (inhibition zone); settings: 10 μL of 10 mg/mL DMSO stock, mean ± SD
Procedure: (§4) For the evaluation of antimicrobial activity, the following reference strains were used: S. aureus ATCC 25923, E. faecalis ATCC 29212, E. coli ATCC 25922, P. aeruginosa ATCC 27853 and C. albicans ATCC 10231. The microbial suspensions were prepared at a density of 1.5 × 10^8 CFU/mL, corresponding to the McFarland 0.5 nephelometric standard. These suspensions were obtained from 18–24 h cultures developed on solid media (Mueller-Hinton for bacteria, Sabouraud for yeast). Antimicrobial activity was assessed using an adapted Kirby-Bauer method according to CLSI (Clinical and Laboratory Standards Institute). In addition to the 10 mg/mL stock solutions prepared in DMSO for each compound, a solvent control was used. Each stock solution (10 μL) was distributed in spot on the medium inoculated with the interest strain. After measuring the diameter of the inhibition zone (IZD) around the spot (mm), the results were expressed as the mean ± standard deviation (SD) for each compound tested in duplicate.

[9] = test system: C. albicans ATCC 10231; assay: as above; settings: 10 μL of 10 mg/mL DMSO stock, mean ± SD
Procedure: as §4

[10] = test system: E. faecalis ATCC 29212; assay: as above; settings: 10 μL of 10 mg/mL DMSO stock, mean ± SD
Procedure: as §4

[11] = test system: S. aureus ATCC 25923; assay: as above; settings: 10 μL of 10 mg/mL DMSO stock, mean ± SD
Procedure: as §4

[12] = test system: P. aeruginosa ATCC 27853; assay: as above; settings: 10 μL of 10 mg/mL DMSO stock, mean ± SD
Procedure: as §4

[13] = test system: C. albicans ATCC 10231; assay: Microbicidal activity (MMC); settings: DMSO control 5
Procedure: (§5) For the evaluation of antimicrobial activity, the following reference strains were used: S. aureus ATCC 25923, E. faecalis ATCC 29212, E. coli ATCC 25922, P. aeruginosa ATCC 27853 and C. albicans ATCC 10231. To determine the MMCs, 5 μL of culture was taken from each well and distributed on solid medium. The plates were incubated for 20–24 h at 37 °C. The lowest concentration at which no microbial growth was observed was considered MMC.

[14] = test system: S. aureus ATCC 25923; assay: Microbicidal activity (MMC); settings: DMSO control 5
Procedure: as §5

[15] = test system: P. aeruginosa ATCC 27853; assay: Microbicidal activity (MMC); settings: DMSO control 2.5
Procedure: as §5

[16] = test system: E. faecalis ATCC 29212; assay: Microbicidal activity (MMC); settings: DMSO control >5
Procedure: as §5

Row | Compound | viability at 50 µM [1] | Cell viability [2] | MICMA [3] | MICMA [4] | MICMA [5] | MICMA [6] | MICMA [7] | IZD (mm) [8] | IZD (mm) [9] | IZD (mm) [10] | IZD (mm) [11] | IZD (mm) [12] | MMC [13] | MMC [14] | MMC [15] | MMC [16] | Cytotoxic effect (in words) [2] | Cytotoxic effect (in words) [1] | other results
1 | Cc1nc2ccccc2c(=O)n1CC(=O)N/N=C/c1cc(Br)ccc1O [Compound 1a, N′-[(E)-(5-bromo-2-hydroxyphenyl)methylidene]-2-(2-methyl-4-oxoquinazolin-3(4H)-yl)acetohydrazide] | ~60% | below 50% | 1.25 mg/mL | 0.625 mg/mL | 1.25 mg/mL | 2.5 mg/mL | 0.625 mg/mL | 0.00 ± 0.00 mm | 0.00 ± 0.00 mm | 0.00 ± 0.00 mm | 0.00 ± 0.00 mm | 0.00 ± 0.00 mm | 5 mg/mL | >5 mg/mL | 2.5 mg/mL |  |  |  | viability at 50 µM ([2]; Homo sapiens, 50 µM, relative to untreated control, read-out: Cell viability): ~50%; IC50 ([2]; Homo sapiens, read-out: IC50): ~50 µM
2 | Cc1nc2ccccc2c(=O)n1CC(=O)N/N=C/c1cc(Br)cc(Br)c1O [Compound 1b, N′-[(E)-(3,5-bromo-2-hydroxyphenyl)methylidene]-2-(2-methyl-4-oxoquinazolin-3(4H)-yl)acetohydrazide] | ~50% | below 50% | 2.5 mg/mL | 5 mg/mL | 5 mg/mL | 1.25 mg/mL | 1.25 mg/mL | 0.00 ± 0.00 mm | 0.00 ± 0.00 mm | 0.00 ± 0.00 mm | 12.33 ± 0.58 mm | 0.00 ± 0.00 mm | 5 mg/mL | >5 mg/mL | 5 mg/mL | >5 mg/mL |  |  | IC50 [1]: ~50 µM; Reduction of cell viability [2]: approximately 50%
3 | COc1cccc(/C=N/NC(=O)Cn2c(C)nc3ccccc3c2=O)c1O [Compound 1c, N′-[(E)-(2-hydroxy-3-methoxyphenyl)methylidene]-2-(2-methyl-4-oxoquinazolin-3(4H)-yl)acetohydrazide] | ~50% |  | 2.5 mg/mL | 0.625 mg/mL | 2.5 mg/mL | 2.5 mg/mL | 1.25 mg/mL | 0.00 ± 0.00 mm | 6.67 ± 0.58 mm | 7.67 ± 0.58 mm | 7.67 ± 0.58 mm | 0.00 ± 0.00 mm | 5 mg/mL | 5 mg/mL | 2.5 mg/mL | >5 mg/mL | potent inhibitory effects at all concentrations tested |  | IC50 [1]: ~50 µM; IC50 [2]: did not produce a viability drop sufficient to determine an IC50 value
4 | COc1ccc(/C=N/NC(=O)Cn2c(C)nc3ccccc3c2=O)c(O)c1 [Compound 1d, N′-[(E)-(2-hydroxy-4-methoxyphenyl)methylidene]-2-(2-methyl-4-oxoquinazolin-3(4H)-yl)acetohydrazide] |  | below 50% | 2.5 mg/mL | 1.25 mg/mL | 5 mg/mL | 2.5 mg/mL | 1.25 mg/mL | 0.00 ± 0.00 mm | 0.00 ± 0.00 mm | 0.00 ± 0.00 mm | 0.00 ± 0.00 mm | 0.00 ± 0.00 mm | >5 mg/mL | >5 mg/mL |  | >5 mg/mL |  |  | Cell viability ([1]; at 50 µM and 25 µM): below 60%; Reduction of cell viability [2]: approximately 50%
5 | COc1ccc(O)c(/C=N/NC(=O)Cn2c(C)nc3ccccc3c2=O)c1 [Compound 1e, N′-[(E)-(2-hydroxy-5-methoxyphenyl)methylidene]-2-(2-methyl-4-oxoquinazolin-3(4H)-yl)acetohydrazide] |  |  | 5 mg/mL | 2.5 mg/mL | 5 mg/mL | 2.5 mg/mL | 1.25 mg/mL | 0.00 ± 0.00 mm | 0.00 ± 0.00 mm | 0.00 ± 0.00 mm | 0.00 ± 0.00 mm | 0.00 ± 0.00 mm |  | 5 mg/mL | 5 mg/mL | >5 mg/mL | weaker cytotoxic activity | only mild cytotoxicity | Cell viability ([1]; at all doses (3.125 to 50 µM)): above 70%
6 | COc1cc(/C=N/NC(=O)Cn2c(C)nc3ccccc3c2=O)cc([N+](=O)[O-])c1O [Compound 1f, N′-[(E)-(4-hydroxy-3-methoxy-5-nitrophenyl)methylidene]-2-(2-methyl-4-oxoquinazolin-3(4H)-yl)acetohydrazide] |  |  | 2.5 mg/mL | 1.25 mg/mL | 2.5 mg/mL | 2.5 mg/mL | 1.25 mg/mL | 0.00 ± 0.00 mm | 0.00 ± 0.00 mm | 0.00 ± 0.00 mm | 0.00 ± 0.00 mm | 0.00 ± 0.00 mm | 5 mg/mL | 5 mg/mL | 2.5 mg/mL | >5 mg/mL | no inhibitory effect | did not exert any inhibitory effect | 
7 | Cc1nc2ccccc2c(=O)n1CC(=O)NN [Compound 2, 2-(2-methyl-4-oxoquinazolin-3(4H)-yl)acetohydrazide] |  |  | 1.25 mg/mL |  | >5 mg/mL | 2.5 mg/mL |  | 0.00 ± 0.00 mm | 6.33 ± 1.53 mm | 0.00 ± 0.00 mm | 0.00 ± 0.00 mm | 0.00 ± 0.00 mm | 5 mg/mL | >5 mg/mL | 5 mg/mL | >5 mg/mL | overall increase in cell viability at all tested concentrations | no cytotoxic activity | 

From PMC12845261, “Design, Synthesis, and Biological Evaluation of N-Acyl-Hydrazone-Linked Quinazolinone Derivatives with Antioxidant, Antimicrobial, and Anticancer Potential” (Pharmaceuticals, 2025)
